Assay results as given in ChEMBL document CHEMBL1201862, “PubChem BioAssay data set” (2004).
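Step 1: Grow cells in 96-well plates. Step 2: Expose to compound for 48 hours at 5 concentrations. Step 3: Interpolate endpoints linearly; if unreached, use highest concentration. The concentration for 50% growth inhibition is given as GI50.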 The source made the active and inactive calls. Rule as the data show it: active = GI50 up to about 1.1 µM and inactive = higher. Where a SMILES comes first, the peptide text is derived from it. The star is where a group is joined. Fmoc = O=C(OCC1c2ccccc2-c2ccccc21)*; Boc = CC(C)(C)OC(=O)*

Experiments:
Assay in all cases: NCI anticancer screen, dose series, 48 h
[1] = tested on: 786-0
[2] = tested on: BT-549
[3] = tested on: COLO 205
[4] = tested on: HCT-15
[5] = tested on: HOP-62
[6] = tested on: IGROV-1
[7] = tested on: KM12
[8] = tested on: LOX IMVI
[9] = tested on: MDA-N
[10] = tested on: Malme-3M
[11] = tested on: NCI-H23
[12] = tested on: NCI-H460
[13] = tested on: OVCAR-5
[14] = tested on: SK-MEL-28
[15] = tested on: SK-MEL-5
[16] = tested on: SN12C
[17] = tested on: SNB-75
[18] = tested on: SR
[19] = tested on: T47D
[20] = tested on: UACC-257

Compound | GI50 [1] | GI50 [2] | GI50 [3] | GI50 [4] | GI50 [5] | GI50 [6] | GI50 [7] | GI50 [8] | GI50 [9] | GI50 [10] | GI50 [11] | GI50 [12] | GI50 [13] | GI50 [14] | GI50 [15] | GI50 [16] | GI50 [17] | GI50 [18] | GI50 [19] | GI50 [20]
CC(=O)c1ccc(Oc2c3ccccc3nc3ccccc23)cc1 | 3.4 µM (inactive) | 12.5 µM (inactive) | 2.79 µM (inactive) | 4.01 µM | 14.4 µM (inactive) | 4.89 µM (inactive) | 7 µM (inactive) | 5.86 µM (inactive) | 4.27 µM (inactive) | 12.6 µM (inactive) | 22.5 µM (inactive) | 15.4 µM (inactive) | 9.68 µM (inactive) | 14.7 µM (inactive) | 14.9 µM (inactive) | 5.08 µM (inactive) | 16.1 µM (inactive) | 1.01 µM (active) | 3.72 µM (inactive) | 5.68 µM (inactive)
C[C@]12CCC(=O)C=C1CC[C@@H]1[C@@H]2CC[C@]2(C)C(=O)/C(=C/c3ccncc3)C[C@@H]12 | 15.1 µM (inactive) | 19.2 µM (inactive) | 13.2 µM (inactive) | 15.3 µM | 14.6 µM (inactive) | 21.2 µM (inactive) | 13.4 µM (inactive) | 15.7 µM (inactive) | 20.1 µM (inactive) | 15.7 µM (inactive) | 18.3 µM (inactive) | 12.3 µM (inactive) | 16.9 µM (inactive) | 20 µM (inactive) | 8.97 µM (inactive) | 16.7 µM (inactive) | 19.6 µM (inactive) | 4.75 µM (inactive) | 15.9 µM (inactive) | 13.4 µM (inactive)
CCOC(=O)COC1=Nc2cc(OC)c(OC)c3nc(Cl)cc(c23)C1=O | 1.62 µM (inactive) | 1.95 µM (inactive) | 1.92 µM (inactive) | 2.34 µM | 3.07 µM (inactive) | 2.37 µM (inactive) | 14.8 µM (inactive) | 1.98 µM (inactive) | 1.18 µM (inactive) | 1.36 µM (inactive) | 2.25 µM (inactive) | 18.8 µM (inactive) | 1.94 µM (inactive) | 1.99 µM (inactive) | 1.88 µM (inactive) | 1.8 µM (inactive) | 2.51 µM (inactive) | 0.94 µM (active) | 2.96 µM (inactive) | 1.75 µM (inactive)
CCCCc1ccc(N2C(=O)c3cc([N+](=O)[O-])cnc3S2(=O)=O)cc1 | > 100 µM (inactive) | 87.7 µM (inactive) | > 100 µM (inactive) | > 100 µM | > 100 µM (inactive) | > 100 µM (inactive) | > 100 µM (inactive) | 61.7 µM (inactive) | > 100 µM (inactive) | > 100 µM (inactive) | > 100 µM (inactive) | > 100 µM (inactive) | > 100 µM (inactive) | > 100 µM (inactive) | > 100 µM (inactive) | > 100 µM (inactive) | > 100 µM (inactive) | 43.3 µM (inactive) | > 100 µM (inactive) | > 100 µM (inactive)
O=C(CC1C(=O)Nc2ccccc2[S+]1[O-])Nc1cccc(Cl)c1 (stereo not given) | 37.2 µM (inactive) | 26.3 µM (inactive) | > 41 µM (inactive) | 27.1 µM | 25.5 µM (inactive) | > 37.5 µM (inactive) | > 57.9 µM (inactive) | > 100 µM (inactive) | 18.6 µM (inactive) | > 55.6 µM (inactive) | > 44.9 µM (inactive) | > 44.6 µM (inactive) | > 62.7 µM (inactive) | > 57.7 µM (inactive) | > 30.9 µM (inactive) | > 51.9 µM (inactive) | 16.4 µM (inactive) | 4.93 µM (inactive) | 11.2 µM (inactive) | > 50.5 µM (inactive)
Cc1cccc(Nc2cc(Cl)nc(SCC(=O)O)n2)c1C [PIRINIXIC ACID] | > 100 µM (inactive) | > 100 µM (inactive) | > 100 µM (inactive) | > 100 µM | > 100 µM (inactive) | > 100 µM (inactive) | > 100 µM (inactive) | > 100 µM (inactive) | > 100 µM (inactive) | > 100 µM (inactive) | > 100 µM (inactive) | > 100 µM (inactive) | > 100 µM (inactive) | > 100 µM (inactive) | > 100 µM (inactive) | > 100 µM (inactive) | > 100 µM (inactive) | > 100 µM (inactive) | > 100 µM (inactive) | > 100 µM (inactive)
CC(C)(C)OC(=O)NCCCCC(NC(=O)C(Cc1c[nH]c2ccccc12)NC(=O)OCC1c2ccccc2-c2ccccc21)C(=O)O (stereo not given) (Fmoc-Trp-Lys(Boc)-OH; configuration not given here) | 80 µM (inactive) | 35.6 µM (inactive) | 64.7 µM (inactive) | > 100 µM | 39.5 µM (inactive) | 52.2 µM (inactive) | 47.8 µM (inactive) | 21.6 µM (inactive) | 35.9 µM (inactive) | 47.8 µM (inactive) | 31 µM (inactive) | 34.7 µM (inactive) | > 100 µM (inactive) | 26.3 µM (inactive) | 90.2 µM (inactive) | 52.2 µM (inactive) | 55 µM (inactive) | 21.9 µM (inactive) | 54.7 µM (inactive) | 79.3 µM (inactive)
COC(O)C12OC3CO[Si](C(C)C)(C(C)C)O[Si](C(C)C)(C(C)C)OC3C1Oc1nc(=O)ccn12 (stereo not given) | 15.2 µM (inactive) | 15.5 µM (inactive) | 12.7 µM (inactive) | 16.3 µM | 13.7 µM (inactive) | 12.3 µM (inactive) | 5.61 µM (inactive) | 12.7 µM (inactive) | 12.8 µM (inactive) | 13.1 µM (inactive) | 14.3 µM (inactive) | 11.3 µM (inactive) | 15.7 µM (inactive) | > 100 µM (inactive) | 7.87 µM (inactive) | 13.3 µM (inactive) | 26.2 µM (inactive) | 1.23 µM (inactive) | 7.69 µM (inactive) | 11.8 µM (inactive)
CCOP(=O)(OCC)/C(C#N)=C/c1ccc(-c2ccc(F)cc2F)o1 | 13.9 µM (inactive) | 11.7 µM (inactive) | 14.9 µM (inactive) | 13.5 µM | 19.2 µM (inactive) | 13.9 µM (inactive) | 16 µM (inactive) | 13.3 µM (inactive) | 33.7 µM (inactive) | 18.4 µM (inactive) | 14.5 µM (inactive) | 20 µM (inactive) | 17.3 µM (inactive) | 14.8 µM (inactive) | 10.6 µM (inactive) | 15.8 µM (inactive) | 18.5 µM (inactive) | 15 µM (inactive) | 3.3 µM (inactive) | 13.3 µM (inactive)
O=C1c2cccc3cccc(c23)C(=O)N1CCCNCCCCNCCCN1C(=O)c2cccc3cccc(c23)C1=O | 0.0311 µM (active) | 1.25 µM (inactive) | 0.192 µM (active) | 3.22 µM | 0.205 µM (active) | 0.0697 µM (active) | 0.108 µM (active) | 0.0229 µM (active) | 0.256 µM (active) | 0.144 µM (active) | 0.0944 µM (active) | 0.0194 µM (active) | 0.316 µM (active) | 0.238 µM (active) | 0.644 µM (active) | 0.104 µM (active) | 0.202 µM (active) | < 0.01 µM (active) | 0.515 µM (active) | 0.61 µM (active)
